Assay results published in ChEMBL document CHEMBL6134868, “Novel Aryl Sulfonium Modification on Vancomycin to Tackle MRSA and VRE In Vitro and In Vivo through Dual Enhanced Cell-Wall and Membrane Inhibition” (J Med Chem, 2025).
In brackets after ≈: the same amount, converted by molar mass.

How the values were obtained:
Format in all cases: functional
Settings in all cases: time 16-24 hrs
Enterococcus faecium [1] = assay: Antibacterial activity against vancomycin-resistant Enterococcus faecium Efm-HS-0649 harboring VanA phenotype incubated for 16 to 24 hrs by broth microdilution assay
Acinetobacter baumannii [2] = assay: Antibacterial activity against carbapenem-resistant Acinetobacter baumannii CRAB-1 clinical isolate incubated for 16 to 24 hrs by broth microdilution assay
Klebsiella pneumoniae = assay: Antibacterial activity against Klebsiella pneumoniae KP-1 incubated for 16 to 24 hrs by broth microdilution assay
Enterococcus faecium [3] = assay: Antibacterial activity against vancomycin-resistant Enterococcus faecium Efm-HS-08257 harboring VanM phenotype incubated for 16 to 24 hrs by broth microdilution assay
Acinetobacter baumannii [4] = assay: Antibacterial activity against Acinetobacter baumannii ATCC19606 incubated for 16 to 24 hrs by broth microdilution assay
Enterococcus faecium [5] = assay: Antibacterial activity against vancomycin-resistant Enterococcus faecium Efm-HS-vb02 harboring VanB phenotype incubated for 16 to 24 hrs by broth microdilution assay
Staphylococcus aureus [6] = assay: Antibacterial activity against vancomycin-intermediate Staphylococcus aureus Mu50 incubated for 16 to 24 hrs by broth microdilution assay
Pseudomonas aeruginosa = assay: Antibacterial activity against Pseudomonas aeruginosa PAO1 incubated for 16 to 24 hrs by broth microdilution assay
Staphylococcus aureus [7] = assay: Antibacterial activity against methicillin-resistant Staphylococcus aureus USA300 LAC incubated for 16 to 24 hrs by broth microdilution assay
Enterococcus faecium [8] = assay: Antibacterial activity against vancomycin-resistant Enterococcus faecium Efm-HS-vb01 harboring VanB phenotype incubated for 16 to 24 hrs by broth microdilution assay
Escherichia coli = assay: Antibacterial activity against Escherichia coli AB1157 incubated for 16 to 24 hrs by broth microdilution assay

| Structure (SMILES) | MIC (Enterococcus faecium [1]) | MIC (Acinetobacter baumannii [2]) | MIC (Klebsiella pneumoniae) | MIC (Enterococcus faecium [3]) | MIC (Acinetobacter baumannii [4]) | MIC (Enterococcus faecium [5]) | MIC (Staphylococcus aureus [6]) | MIC (Pseudomonas aeruginosa) | MIC (Staphylococcus aureus [7]) | MIC (Enterococcus faecium [8]) | MIC (Escherichia coli) |
| --- | --- | --- | --- | --- | --- | --- | --- | --- | --- | --- | --- |
| CN[C@H](CC(C)C)C(=O)N[C@H]1C(=O)N[C@@H](CC(N)=O)C(=O)N[C@H]2C(=O)N[C@H]3C(=O)N[C@H](C(=O)N[C@H](C(=O)O)c4cc(O)cc(O)c4-c4cc3ccc4O)[C@H](O)c3ccc(c(Cl)c3)Oc3cc2cc(c3O[C@@H]2O[C@H](CO)[C@@H](O)[C@H](O)[C@H]2O[C@H]2C[C@](C)(NCCC[S+](C)C[C@@H](O)COc3ccccc3)[C@H](O)[C@H](C)O2)Oc2ccc(cc2Cl)[C@H]1O.O=C([O-])C(F)(F)F (some centres not stated) | 16 µg/mL | 128 µg/mL | > 128 µg/mL | 16 µg/mL | 128 µg/mL | 4 µg/mL | 1 µg/mL | > 128 µg/mL | 0.25 µg/mL | 16 µg/mL | 128 µg/mL |
| CC(C)C[C@H](C(=O)N[C@H]1C(=O)N[C@@H](CC(N)=O)C(=O)N[C@H]2C(=O)N[C@H]3C(=O)N[C@H](C(=O)N[C@H](C(=O)O)c4cc(O)cc(O)c4-c4cc3ccc4O)[C@H](O)c3ccc(c(Cl)c3)Oc3cc2cc(c3O[C@@H]2O[C@H](CO)[C@@H](O)[C@H](O)[C@H]2O[C@H]2C[C@](C)(N)[C@H](O)[C@H](C)O2)Oc2ccc(cc2Cl)[C@H]1O)N(C)CCC[S+](C)C[C@@H](O)COc1ccccc1.O=C([O-])C(F)(F)F (some centres not stated) | > 128 µg/mL | > 128 µg/mL | > 128 µg/mL | 128 µg/mL | > 128 µg/mL | 32 µg/mL | 8 µg/mL | > 128 µg/mL | 1 µg/mL | 64 µg/mL | > 128 µg/mL |
| CN[C@H](CC(C)C)C(=O)N[C@H]1C(=O)N[C@@H](CC(N)=O)C(=O)N[C@H]2C(=O)N[C@H]3C(=O)N[C@H](C(=O)N[C@H](C(=O)NCCC[S+](C)CC(O)COc4ccc(C(C)(C)C)cc4)c4cc(O)cc(O)c4-c4cc3ccc4O)[C@H](O)c3ccc(c(Cl)c3)Oc3cc2cc(c3O[C@@H]2O[C@H](CO)[C@@H](O)[C@H](O)[C@H]2O[C@H]2C[C@](C)(N)[C@H](O)[C@H](C)O2)Oc2ccc(cc2Cl)[C@H]1O.O=C([O-])C(F)(F)F (some centres not stated) | 32 µg/mL | 64 µg/mL | > 128 µg/mL | 8 µg/mL | 32 µg/mL | 4 µg/mL | 1 µg/mL | > 128 µg/mL | ≤ 0.063 µg/mL | 16 µg/mL | 32 µg/mL |
| CN[C@H](CC(C)C)C(=O)N[C@H]1C(=O)N[C@@H](CC(N)=O)C(=O)N[C@H]2C(=O)N[C@H]3C(=O)N[C@H](C(=O)N[C@H](C(=O)NCCC[S+](C)CC(O)COc4ccc(-c5ccc(C(F)(F)F)cc5)cc4)c4cc(O)cc(O)c4-c4cc3ccc4O)[C@H](O)c3ccc(c(Cl)c3)Oc3cc2cc(c3O[C@@H]2O[C@H](CO)[C@@H](O)[C@H](O)[C@H]2O[C@H]2C[C@](C)(N)[C@H](O)[C@H](C)O2)Oc2ccc(cc2Cl)[C@H]1O.O=C([O-])C(F)(F)F (some centres not stated) | 2 µg/mL | 128 µg/mL | > 128 µg/mL | 1 µg/mL | 32 µg/mL | 0.5 µg/mL | 0.25 µg/mL | > 128 µg/mL | 0.5 µg/mL | 4 µg/mL | 16 µg/mL |
| CC(C)C[C@H](C(=O)N[C@H]1C(=O)N[C@@H](CC(N)=O)C(=O)N[C@H]2C(=O)N[C@H]3C(=O)N[C@H](C(=O)N[C@H](C(=O)O)c4cc(O)cc(O)c4-c4cc3ccc4O)[C@H](O)c3ccc(c(Cl)c3)Oc3cc2cc(c3O[C@@H]2O[C@H](CO)[C@@H](O)[C@H](O)[C@H]2O[C@H]2C[C@](C)(N)[C@H](O)[C@H](C)O2)Oc2ccc(cc2Cl)[C@H]1O)N(C)CCC[S+](C)C[C@H](O)COc1ccccc1.O=C([O-])C(F)(F)F (some centres not stated) | > 128 µg/mL | > 128 µg/mL | > 128 µg/mL | 128 µg/mL | > 128 µg/mL | 32 µg/mL | 8 µg/mL | > 128 µg/mL | 2 µg/mL | 64 µg/mL | > 128 µg/mL |
| CN[C@H](CC(C)C)C(=O)N[C@H]1C(=O)N[C@@H](CC(N)=O)C(=O)N[C@H]2C(=O)N[C@H]3C(=O)N[C@H](C(=O)N[C@H](C(=O)NCCC[S+](C)CC(O)CCc4ccccc4)c4cc(O)cc(O)c4-c4cc3ccc4O)[C@H](O)c3ccc(c(Cl)c3)Oc3cc2cc(c3O[C@@H]2O[C@H](CO)[C@@H](O)[C@H](O)[C@H]2O[C@H]2C[C@](C)(N)[C@H](O)[C@H](C)O2)Oc2ccc(cc2Cl)[C@H]1O.O=C([O-])C(F)(F)F (some centres not stated) | 32 µg/mL | > 128 µg/mL | > 128 µg/mL | 32 µg/mL | > 128 µg/mL | 2 µg/mL | 2 µg/mL | 128 µg/mL | 0.5 µg/mL | 32 µg/mL | 32 µg/mL |
| CN[C@H](CC(C)C)C(=O)N[C@H]1C(=O)N[C@@H](CC(N)=O)C(=O)N[C@H]2C(=O)N[C@H]3C(=O)N[C@H](C(=O)N[C@H](C(=O)O)c4cc(O)c(CNCCC[S+](C)CC(O)COc5ccc(-c6ccccc6)cc5)c(O)c4-c4cc3ccc4O)[C@H](O)c3ccc(c(Cl)c3)Oc3cc2cc(c3O[C@@H]2O[C@H](CO)[C@@H](O)[C@H](O)[C@H]2O[C@H]2C[C@](C)(N)[C@H](O)[C@H](C)O2)Oc2ccc(cc2Cl)[C@H]1O.O=C([O-])C(F)(F)F (some centres not stated) | 4 µg/mL | 32 µg/mL | > 128 µg/mL | 4 µg/mL | 16 µg/mL | ≤ 0.063 µg/mL | ≤ 0.063 µg/mL | > 128 µg/mL | ≤ 0.063 µg/mL | ≤ 0.063 µg/mL | 16 µg/mL |
| CN[C@H](CC(C)C)C(=O)N[C@H]1C(=O)N[C@@H](CC(N)=O)C(=O)N[C@H]2C(=O)N[C@H]3C(=O)N[C@H](C(=O)N[C@H](C(=O)NCCC[S+](C)CC(O)COc4ccccc4)c4cc(O)cc(O)c4-c4cc3ccc4O)[C@H](O)c3ccc(c(Cl)c3)Oc3cc2cc(c3O[C@@H]2O[C@H](CO)[C@@H](O)[C@H](O)[C@H]2O[C@H]2C[C@](C)(N)[C@H](O)[C@H](C)O2)Oc2ccc(cc2Cl)[C@H]1O.O=C([O-])C(F)(F)F (some centres not stated) | 32 µg/mL | > 128 µg/mL | > 128 µg/mL | 16 µg/mL | 64 µg/mL | 4 µg/mL | 2 µg/mL | > 128 µg/mL | 0.25 µg/mL | 16 µg/mL | 16 µg/mL |
| CN[C@H](CC(C)C)C(=O)N[C@H]1C(=O)N[C@@H](CC(N)=O)C(=O)N[C@H]2C(=O)N[C@H]3C(=O)N[C@H](C(=O)N[C@H](C(=O)O)c4cc(O)cc(O)c4-c4cc3ccc4O)[C@H](O)c3ccc(c(Cl)c3)Oc3cc2cc(c3O[C@@H]2O[C@H](CO)[C@@H](O)[C@H](O)[C@H]2O[C@H]2C[C@](C)(NCCC[S+](C)CC(O)COc3ccccc3)[C@H](O)[C@H](C)O2)Oc2ccc(cc2Cl)[C@H]1O.O=C([O-])C(F)(F)F (some centres not stated) | 16 µg/mL | 128 µg/mL | > 128 µg/mL | 16 µg/mL | 128 µg/mL | 4 µg/mL | 1 µg/mL | > 128 µg/mL | 0.25 µg/mL | 16 µg/mL | 128 µg/mL |
| CN[C@H](CC(C)C)C(=O)N[C@H]1C(=O)N[C@@H](CC(N)=O)C(=O)N[C@H]2C(=O)N[C@H]3C(=O)N[C@H](C(=O)N[C@H](C(=O)NCCC[S+](C)C[C@@H](O)COc4ccccc4)c4cc(O)cc(O)c4-c4cc3ccc4O)[C@H](O)c3ccc(c(Cl)c3)Oc3cc2cc(c3O[C@@H]2O[C@H](CO)[C@@H](O)[C@H](O)[C@H]2O[C@H]2C[C@](C)(N)[C@H](O)[C@H](C)O2)Oc2ccc(cc2Cl)[C@H]1O.O=C([O-])C(F)(F)F (some centres not stated) | 32 µg/mL | > 128 µg/mL | > 128 µg/mL | 16 µg/mL | 64 µg/mL | 2 µg/mL | 2 µg/mL | > 128 µg/mL | 0.25 µg/mL | 16 µg/mL | 16 µg/mL |
| CN[C@H](CC(C)C)C(=O)N[C@H]1C(=O)N[C@@H](CC(N)=O)C(=O)N[C@H]2C(=O)N[C@H]3C(=O)N[C@H](C(=O)N[C@H](C(=O)NCCCSCC(O)COc4ccc(-c5ccc(C(F)(F)F)cc5)cc4)c4cc(O)cc(O)c4-c4cc3ccc4O)[C@H](O)c3ccc(c(Cl)c3)Oc3cc2cc(c3O[C@@H]2O[C@H](CO)[C@@H](O)[C@H](O)[C@H]2O[C@H]2C[C@](C)(N)[C@H](O)[C@H](C)O2)Oc2ccc(cc2Cl)[C@H]1O (some centres not stated) | 4 µg/mL (≈ 2.2 µM) | > 128 µg/mL | > 128 µg/mL | 2 µg/mL (≈ 1.1 µM) | > 128 µg/mL | 2 µg/mL (≈ 1.1 µM) | 1 µg/mL (≈ 0.55 µM) | > 128 µg/mL | 1 µg/mL (≈ 0.55 µM) | 4 µg/mL (≈ 2.2 µM) | > 128 µg/mL |
| CN[C@H](CC(C)C)C(=O)N[C@H]1C(=O)N[C@@H](CC(N)=O)C(=O)N[C@H]2C(=O)N[C@H]3C(=O)N[C@H](C(=O)N[C@H](C(=O)NCCC[S+](C)CC(O)COc4cccc(Cl)c4)c4cc(O)cc(O)c4-c4cc3ccc4O)[C@H](O)c3ccc(c(Cl)c3)Oc3cc2cc(c3O[C@@H]2O[C@H](CO)[C@@H](O)[C@H](O)[C@H]2O[C@H]2C[C@](C)(N)[C@H](O)[C@H](C)O2)Oc2ccc(cc2Cl)[C@H]1O.O=C([O-])C(F)(F)F (some centres not stated) | 16 µg/mL | 64 µg/mL | > 128 µg/mL | 4 µg/mL | 32 µg/mL | 2 µg/mL | 1 µg/mL | 128 µg/mL | 0.125 µg/mL | 8 µg/mL | 16 µg/mL |
